The subject of assay [1] is death induced by pulmonary infarction in mice. Briefly: Antithrombotic activity: inhibition of death by collagen-induced pulmonary infarction in mice. It is filed as in vivo, male ICR mice. The note with it: Mus musculus, 1 h; 30 mg/kg oral, 10 minutes before i.v. collagen; lethality in an hour; read-out: Pulmonary infarction inhibitory activity. The source says:
Pharmacological Experiment 2 Antithrombotic activity
Antithrombotic activity of the test compounds was estimated by an inhibitory activity of the test compound by oral administration against death induced by pulmonary infarction in mice which was introduced by intravenous administration of collagen (pulmonary infarction inhibitory activity).
Male ICR mice (5-week old, body weight; about 25 g) was fasted overnight, and separated into groups (15 mice per each group) and numbered. A test compound solution, which was prepared by suspending a test compound in 1% hydroxypropylmethyl cellulose 2910 TC-5 (HPMC, manufactured by Shin-etsu Chemical Co., Ltd.), was orally administered to the mice, and 10 minutes thereafter, a collagen solution (the method for preparation thereof and a dose thereof are explained hereafter) was injected to the mice at the tail vein at the constant rate. The lethality of the mice was determined by the number of mice which were died in an hour after the administration of collagen solution. The antithrombotic activity of the test compound was estimated by the inhibitory rate (%) of the lethality of the mice. The collagen solution was prepared by dissolving collagen (Type III, manufactured by Sigma Chemical Ltd.) in 0.05 M acetic acid solution containing 2 mM calcium chloride and 5% glucose at 4° C. so that the final concentration of collagen was adjusted to 2.5 mg/ml, and then the pH value thereof was adjusted to pH 7.4 with sodium hydroxide the day before the experiment. The collagen solution was incubated with stirring at 37° C. for two hours, and then further stirred at room temperature overnight. Just before the experiment, the pH value of the collagen solution was adjusted again to pH 7.4. The amount of the collagen solution which was injected at the tail vein was previously determined so that the lethality by pulmonary infarction induced thereby became about 75%.

Assay [2] concerns platelet aggregation (collagen). Kind of assay: Platelet aggregation inhibitory activity, collagen-induced (Born's turbidimetry, rabbit PRP). It is filed as cell-based, male rabbit (NZW). The note with it: Oryctolagus cuniculus, collagen 20 μg/ml final, 37° C. On the procedure: (§1) Pharmacological Experiment 1 Platelet aggregation inhibitory activity
(§2) (1) Preparation of platelet rich plasma (PRP):
(§3) The blood was collected from the carotid of a male rabbit without anesthesia (NZW species, body weight; 2-3 kg) with mixing thereof with 1/10 volume of citric acid. The blood thus obtained was separated and put into plastic test tubes (each about 7 ml), and centrifuged at 900 rpm for 15 minutes at room temperature to give a turbid supernatant as a platelet rich plasma (PRP). The residue from which PRP is separated was centrifuged at 3000 rpm for 10 minutes, and the supernatant was collected as a platelet poor plasma (PPP). The PRP was diluted with PPP so that the concentration thereof was adjusted to […], and used in the platelet aggregation inhibitory activity test.
(§4) (2) Method for platelet aggregation inhibitory activity test:
(§5) The platelet aggregation was tested according to Born's turbidimetry. That is, a test compound was dissolved in dimethylformamide, and the test compound solution (1 μl) thus obtained was put into a cuvette, and thereto was further added PRP (200 μl). Immediately thereafter, the cuvette was set into an apparatus for determining platelet aggregation activity, PAM-8T (manufactured by Mevanix Inc.), and the mixture was incubated at 37° C. Precisely three minutes thereafter, a solution of adenosine diphosphate (ADP, PA test ADP [MCM], purchased by MC Medical Ltd.) in physiological saline solution or a collagen solution (Collagenreagent Horm, purchased by MC Medical Ltd.) (20 μl) was added thereto. The final concentration of the ADP solution or the collagen solution was 7.5 μM or 20 μg/ml, respectively.
(§6) The maximum aggregation rate and the aggregation inhibitory rate were calculated by the following equations. [formula]
(§7) IC50, which is a concentration of the test compound being required to inhibit the platelet aggregation reaction by 50%, was determined from the aggregation inhibitory rates at two different concentrations of a test compound.

Assay [3] relates to platelet aggregation (ADP). Briefly: Platelet aggregation inhibitory activity, ADP-induced (Born's turbidimetry, rabbit PRP). It is filed as cell-based, male rabbit (NZW). The note with it: Oryctolagus cuniculus, ADP 7.5 μM final, 37° C. Here is the method:
as §1, §2, §3, §4, §5, §6, §7

Assay [4] has as its system left common carotid artery injured by balloon. Kind of assay: Intima thickening inhibitory activity after balloon injury (3H-thymidine in carotid artery). Type of assay: in vivo, male SD rats. The note with it: Rattus norvegicus, oral. On the procedure: Pharmacological Experiment 3 Intima thickening inhibitory activity
Male SD rats (6-week old) were separated into groups (8 rats per each group) and numbered. A test compound solution, which was prepared by suspending a test compound in 1% hydroxypropylmethyl cellulose 2910 TC-5 (HPMC, manufactured by Shin-etsu Chemical Co., Ltd.) was orally administered to the rats. In the control group, 1% HPMC solution was orally administered instead of the test compound solution. One or two hours thereafter, two french balloon catheters (manufactured by Baxter Travenol Inc.) were inserted into the left common carotid artery of the rats, and the artery was injured by abrading five times with a balloon. The day of balloon abrasion was considered as Day 0. On the following day (Day 1), a test compound was orally administered to the rats two times a day (in the morning and in the evening). On Day 2, 1.48 MBq/ml of ^3 H-thymidine (dose: 5 ml/kg, manufactured by NEN Research Products, Ltd.) was injected at the tail vein of the rats about one hour after the administration of the test compound so that the time after the balloon injury was fixed to the same in each rat. Precisely 45 minutes after the injection of ^3 H-thymidine at the tail veil, the common carotid artery of the rats was taken out.
In the test compound-treated group, only the left common carotid artery which was injured by balloon was taken out, and in the control group, both the left and right common carotid arteries were taken out. The common carotid artery thus obtained was cut to pieces of exact 1 cm long, and the unnecessary portions such as the outer membrane or the nerves were completely removed. The common carotid artery was put into a glass vial, and thereto was added a 0.5 N sodium hydroxide (0.5 ml), and the mixture was incubated at 37° C. overnight to be solubilized. The mixture was neutralized with a 5 N hydrochloric acid (0.05 ml), and thereto was further added an aqueous hydrogen peroxide solution (0.1 ml). Aquasol II (10 ml, manufactured by Du Pont Co.) was added thereto, and the mixture was well stirred and then allowed to stand for 30 minutes. The radioactivity of tritium in the mixture was counted by liquid scintillation counter. The intima thickening inhibitory activity of the test compound was calculated by the following equation. [formula] L (c): The amount of tritium in the left common carotid artery in the control group (dpm)
R (c): The amount of tritium in the right common carotid artery in the control group (dpm)
L: The amount of tritium in the left common carotid artery in the test compound-treated group (dpm)

Assay [5] has as its target T1, cGMP-inhibited cAMP phosphodiesterase (PDE3) (Homo sapiens, UniProt Q14432).
T1 construct: made in house; host or cells: insect cell Sf9, baculovirus expression system
Briefly: cGMP-inhibited cAMP phosphodiesterase (PDE3) inhibitory activity. Type of assay: biochemical. The note with it: 0.4 μM [8-3H]cAMP, pH 8.0, 30° C., 15 minutes; recombinant enzyme from Sf9; read-out: PDE inhibitory activity IC50.

SMILES strings stand for the structures.

Usually IC50 stands for the concentration that gives 50% inhibition.

T1 sequence (Q14432 whole entry): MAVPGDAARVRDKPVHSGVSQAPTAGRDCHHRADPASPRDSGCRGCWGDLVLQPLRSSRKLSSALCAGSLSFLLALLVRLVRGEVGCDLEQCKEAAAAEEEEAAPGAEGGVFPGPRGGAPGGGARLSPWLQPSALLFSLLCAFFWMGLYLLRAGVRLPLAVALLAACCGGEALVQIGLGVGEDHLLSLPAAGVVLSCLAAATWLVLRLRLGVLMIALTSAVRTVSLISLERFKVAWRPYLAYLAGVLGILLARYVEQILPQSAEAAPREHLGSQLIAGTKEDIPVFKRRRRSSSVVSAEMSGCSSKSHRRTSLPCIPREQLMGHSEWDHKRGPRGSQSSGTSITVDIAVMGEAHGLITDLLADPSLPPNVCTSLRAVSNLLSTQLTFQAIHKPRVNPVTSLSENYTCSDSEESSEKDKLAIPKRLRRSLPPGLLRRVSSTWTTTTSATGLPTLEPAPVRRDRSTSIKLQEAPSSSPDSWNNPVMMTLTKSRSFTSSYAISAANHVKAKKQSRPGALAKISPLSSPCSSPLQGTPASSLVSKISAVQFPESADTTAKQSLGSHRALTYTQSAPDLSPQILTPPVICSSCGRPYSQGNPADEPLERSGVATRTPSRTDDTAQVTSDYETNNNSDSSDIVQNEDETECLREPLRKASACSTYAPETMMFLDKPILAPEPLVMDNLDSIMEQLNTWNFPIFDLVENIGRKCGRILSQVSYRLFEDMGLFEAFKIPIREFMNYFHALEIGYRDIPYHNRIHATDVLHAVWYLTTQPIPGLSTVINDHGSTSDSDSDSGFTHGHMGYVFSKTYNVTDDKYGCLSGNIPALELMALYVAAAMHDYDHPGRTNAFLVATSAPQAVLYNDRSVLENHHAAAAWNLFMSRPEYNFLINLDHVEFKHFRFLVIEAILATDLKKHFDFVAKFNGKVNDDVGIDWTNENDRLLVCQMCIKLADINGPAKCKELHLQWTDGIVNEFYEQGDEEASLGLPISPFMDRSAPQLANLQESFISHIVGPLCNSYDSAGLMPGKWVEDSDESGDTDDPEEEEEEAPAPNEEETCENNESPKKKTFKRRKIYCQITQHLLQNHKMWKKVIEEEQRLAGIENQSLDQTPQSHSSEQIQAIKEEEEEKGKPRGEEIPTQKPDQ

With `O=C(NCCOc1ccc2[nH]c(=O)ccc2c1)N(C1CC1)[C@@H]1CCCC[C@H]1O` (relative stereo) [Ex. 30], in assay [1], the inhibition in vivo at 30 mg/kg was determined as 100%. The values for the IC50 in assay [2] and in assay [3] were 2940 nM and 3670 nM, respectively.

On to `CC(=O)O[C@@H]1CCCC[C@H]1N(C(=O)NCCCOc1ccc2[nH]c(=O)ccc2c1)C1CC1` (relative stereo) [Ex. 7, 6-{3-[3-(trans-2-acetyloxycyclohexyl)-3-cyclopropylureide]propoxy}carbostyril], for which the inhibition in vivo at 30 mg/kg in assay [1] came out at 67%; in assay [4], 15.2%. The IC50 in assay [2] was 2100 nM; in assay [3] it was 18200 nM.

Turning to `CCC(O)CN(C(=O)N(C)CCCOc1ccc2[nH]c(=O)ccc2c1)C1CCCCC1` (stereo not drawn) [Ex. 13, 6-{3-[1-methyl-3-cyclohexyl-3-(2-hydroxybutyl)ureido]propoxy}carbostyril], the inhibition in vivo at 30 mg/kg in assay [1] came to 58%; in assay [4], 16.6%. The IC50 in assay [2] is 2000 nM; in assay [3], 2100 nM.

With `CCN(CCCOc1ccc2[nH]c(=O)ccc2c1)C(=O)N(C)C1CCCCC1` [Ex. 15], the inhibition in vivo at 30 mg/kg in assay [1] was 86%; in assay [4], 11.9%. Besides, the IC50 is 16100 nM in assay [2] and 15200 nM in assay [3].

Consider `O=C1CCc2cc(OCCCNC(=O)N(C3CC3)[C@@H]3CCCC[C@H]3O)cc(F)c2N1` (relative stereo) [Ex. 25], for which the inhibition in vivo at 30 mg/kg in assay [1] amounted to 100%. The results for the IC50 in assay [2] and in assay [3] were 3900 nM and 4650 nM, respectively.

Turning to `CC(O)CN(CCCOc1ccc2[nH]c(=O)ccc2c1)C(=O)N(C)C1CCCCC1` (stereo not drawn) [Ex. 21], the inhibition in vivo at 30 mg/kg in assay [1] came to 59%. The figures for the IC50 in assay [2] and in assay [3] were 3250 nM and 2080 nM, respectively.

`O=C(NCCCOc1ccc2[nH]c(=O)ccc2c1)NN(C1CCCCC1)C1CC1` [Ex. 29]: the inhibition in vivo at 30 mg/kg was 91% in assay [1] and 29.3% in assay [4]. Further, the IC50 in assay [2] was 30 nM; in assay [3], 10 nM.

With `COc1cc(OCCCNC(=O)N(C2CC2)[C@@H]2CCCC[C@H]2O)cc2ccc(=O)[nH]c12` (relative stereo) [Ex. 27], the inhibition in vivo at 30 mg/kg in assay [1] turned out to be 80%. For the same molecule, the 50% inhibitory concentration (IC50) in assay [2] was 31600 nM; in assay [5], 2180 nM; in assay [3], 31600 nM.

Consider `CCC(CN(C(=O)N(C)CCCOc1ccc2[nH]c(=O)ccc2c1)C1CCCCC1)OC(C)=O` (stereo not drawn) [Ex. 14, 6-{3-[1-methyl-3-cyclohexyl-3-(2-acetyloxybutyl)ureido]propoxy}carbostyril], for which the figures for the inhibition in vivo at 30 mg/kg in assay [1] and in assay [4] were 66% and 15.7%, respectively. Moreover, the IC50 came out at 2200 nM in assay [2] and 1500 nM in assay [3].

For the molecule `CN(C(=O)N(CCCO)CCCOc1ccc2[nH]c(=O)ccc2c1)C1CCCCC1` [Ex. 22], the inhibition in vivo at 30 mg/kg in assay [1] came out at 69%. Further, the IC50 was 2800 nM in assay [2] and 1310 nM in assay [3].

Regarding `O=C(NCCCOc1ccc2[nH]c(=O)ccc2c1)N(C1CCCCCCC1)[C@@H]1CCCC[C@H]1O` (relative stereo) [Ex. 24], in assay [1], the inhibition in vivo at 30 mg/kg is 100%. Moreover, the IC50 stood at 30 nM in assay [2], 0.647 nM in assay [5] and 80 nM in assay [3].

Take `CCOC(CC)CN(C(=O)NCCCOc1ccc2[nH]c(=O)ccc2c1)C1CCCCC1` (stereo not drawn) [Ex. 19]: the inhibition in vivo at 30 mg/kg in assay [1] was 84%; in assay [4], 23.4%. Besides, the results for the IC50 in assay [2] and in assay [3] were 590 nM and 180 nM, respectively.

On to `CCCN(CCCOc1ccc2[nH]c(=O)ccc2c1)C(=O)N(C)C1CCCCC1` [Ex. 23, 6-[3-(3-cyclohexyl-3-methyl-1-propylureido)propoxy]carbostyril], for which the inhibition in vivo at 30 mg/kg in assay [1] turned out to be 90%. Moreover, the values for the IC50 in assay [2] and in assay [3] were 2510 nM and 13400 nM, respectively.

`CCC(CN(C(=O)NCCCOc1ccc2[nH]c(=O)ccc2c1)C1CCCCC1)OCc1ccccc1` (stereo not drawn) [Ex. 20]: the inhibition in vivo at 30 mg/kg in assay [1] was 66%. Besides, the half-inhibitory concentration (IC50) in assay [2] stood at 290 nM; in assay [3], 220 nM.

`O=C(NCCCCOc1ccc2[nH]c(=O)ccc2c1)N(C1CC1)[C@@H]1CCCC[C@H]1O` [Ex. 31]: the inhibition in vivo at 30 mg/kg in assay [1] worked out at 48%. The IC50 is 2570 nM in assay [2] and 15700 nM in assay [3].

With `CCC(CN(C(=O)NCCCOc1ccc2[nH]c(=O)ccc2c1)C1CCCCC1)OC(C)=O` (stereo not drawn) [Ex. 11], the values for the inhibition in vivo at 30 mg/kg in assay [1] and in assay [4] were 80% and 33%, respectively. The IC50 in assay [2] amounted to 2100 nM; in assay [3] it was 600 nM.

Take `C=CCN(CCCOc1ccc2[nH]c(=O)ccc2c1)C(=O)N(C)C1CCCCC1` [Ex. 16, 6-[3-(3-Cyclohexyl-3-methyl-1-allylureido)propoxy]carbostyril]: the inhibition in vivo at 30 mg/kg in assay [1] turned out to be 77%; in assay [4], 33.3%. For the same molecule, the IC50 in assay [2] came to 20000 nM; in assay [3] it was 4600 nM.

Consider `O=C(NCCCOc1ccc2[nH]c(=O)ccc2c1)N(C1CCCCCC1)[C@@H]1CCCC[C@H]1O` (relative stereo) [Ex. 18], for which the values for the inhibition in vivo at 30 mg/kg in assay [1] and in assay [4] were 69% and 19%, respectively. Also, the IC50 was 30 nM in assay [2] and 120 nM in assay [3].

As to `O=C(NCCCOc1ccc2[nH]c(=O)ccc2c1)N(C1CC1)[C@@H]1CCCC[C@H]1O` (relative stereo) [Ex. 6, 6-{3-[3-(trans-2-hydroxycyclohexyl)-3-cyclopropylureido]propoxy}carbostyril], the inhibition in vivo at 30 mg/kg in assay [1] was 100%. This molecule returned an inhibition in vivo at 10 mg/kg in assay [4] (dose 10 mg/kg) of 31.4%. The IC50 in assay [2] stood at 1900 nM; in assay [3], 1800 nM.
